Values joined by “and” are separate entries in the source; they are usually repeats but may differ in a detail not shown here. Equal values may be shown once.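 Cultured in 96-well plates, cells were exposed to test compound for 48 hours across five concentrations. At the GI50, growth is halved. TGI denotes the concentration required for complete inhibition of growth.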

Test in all cases: NCI anticancer screen, dose series, 48 h
For experiment [1], the system named is EKVX NSCLC.
For experiment [2], the system named is KM12 colon.
Experiment [3] deals with MALME-3M melanoma.
Experiment [4] has as its system MDA-MB-231 breast.
The test system of experiment [5] is MDA-MB-435.
The test system of experiment [6] is OVCAR-5 ovarian.
For experiment [7], the system named is RPMI-8226 leukemia.
Experiment [8] has as its system SK-MEL-2 melanoma.
The subject of experiment [9] is SK-MEL-28 melanoma.
The subject of experiment [10] is UACC-62 melanoma.

As to `CN(C)c1ccc(/C=C\C2=[N+](C)c3ccccc3C2(C)C)cc1`, the GI50 was 1.29 µM in experiment [1]; 0.369 µM in experiment [2]; 0.456 µM in [3]; 2.12 µM in experiment [4]; 0.422 µM in [5]; 3.18 µM in [6]. The GI50 in experiment [7] is 0.176 µM; in experiment [8], 1.31 µM; in experiment [9], 0.51 µM; in experiment [10], 1.49 µM. Also, the TGI was above 100 µM in [1]; 4.46 µM in experiment [2]; 16.5 µM in experiment [3]; 18.8 µM in [4]; 9.35 µM in [5]; 43.8 µM in [6]. For the same compound, the TGI in experiment [7] is above 53.5 µM; in experiment [8], 43.2 µM; in experiment [9], 21.5 µM; in experiment [10], 19.9 µM.
Consider `COC([CH2][Hg][n]1cnc2c1c(=O)n(C)c(=O)n2C)CN1C(=O)c2ccccc2S1(=O)=O` (stereo unspecified), for which the GI50 in [1], in experiment [2], in experiment [3], in experiment [4], in experiment [5] and in [6] was above 100 µM in each case. The GI50 in experiment [7], in experiment [8], in experiment [9] and in [10] was above 100 µM each time. The TGI in [1], in experiment [2], in [3], in experiment [4], in experiment [5] and in experiment [6] was above 100 µM throughout. For the same compound, the TGI in [7], in experiment [8], in experiment [9] and in experiment [10] was above 100 µM each time.
For `CCN1/C(=C\c2cc[n+](CC)c3ccccc23)C=Cc2ccccc21`, the GI50 in experiment [1] is 0.0764 µM; in experiment [2], 0.104 µM; in [3], 0.138 µM; in experiment [4], 0.273 µM; in [5] it was 0.109 µM; in [6] it was 0.611 µM. Besides, the GI50 is 0.0503 µM in experiment [7], 0.231 µM in [8], 0.275 µM in experiment [9] and 0.179 µM in [10]. For the same compound, the TGI in experiment [1] was determined as 12.1 µM; in experiment [2], 1.42 µM; in [3], 0.857 µM; in experiment [4] it was 10.2 µM; in experiment [5], 1.16 µM; in experiment [6], 13.8 µM. Besides, the TGI in experiment [7] was determined as 0.753 µM; in [8] it was 10.9 µM; in experiment [9], 2.33 µM; in [10], 1.27 µM.
In the case of `CC(=O)OC1OC([C@@H]2c3cccc(O)c3C(=O)c3c(O)cc(C)cc32)C(O)C(O)C1O` (stereo partly specified), the GI50 in [1] is 0.026 µM; in [2], below 0.01 µM; in experiment [3], 0.0288 µM; in experiment [4], below 0.0153 µM; in [5] it was below 0.0185 µM; in experiment [6] it was 0.0323 µM. Also, the GI50 in [7] is below 0.0153 µM; in experiment [8], 0.162 µM; in experiment [9], 0.0514 µM; in [10], 0.0211 µM. The TGI is 0.368 µM in [1]; 0.0902 µM in [3]; 0.0377 µM in experiment [4]; 0.691 µM in experiment [5]; 0.36 µM in experiment [6]; below 0.0292 µM in [7]. Also, the TGI in experiment [8] turned out to be 2.14 µM; in experiment [9], 3.6 µM; in [10], 1.52 µM.
For `O=C(Nc1ccccc1)c1c(O)[nH]c(=S)[nH]c1=O`, the GI50 in experiment [1] is 120 µM; in [2] it was 69.9 µM; in experiment [3], 58.5 µM; in experiment [6], 89.6 µM; in experiment [8], 61.6 µM; in experiment [9] it was 127 µM. Moreover, the GI50 in [10] is 33 µM. The TGI in experiment [1] was 103 µM and > 250 µM; in experiment [2], 111 µM and > 250 µM; in experiment [3] it was 96.6 µM and > 250 µM; in experiment [4], 94 µM; in experiment [5] it was 46.8 µM; in experiment [6], 110 µM and > 250 µM. The TGI in [7] was 79 µM and > 25 µM; in experiment [8], 101 µM and 179 µM; in experiment [9], 124 µM and > 250 µM; in experiment [10] it was 55.2 µM and 162 µM.
Consider `Cc1cnc(NCCCN(C)C)c2c1[nH]c1ccc3cc(O)ccc3c12`, for which the TGI in [1] is 4.34 µM; in [2], 10 µM; in experiment [3], 2.2 µM; in experiment [4] it was 2.83 µM; in [5], 2.3 µM; in experiment [6], 3.95 µM. Moreover, the TGI in experiment [7] is 10.1 µM; in [8], 2.47 µM; in [9], 2.86 µM; in experiment [10] it was 1.9 µM.
With `Cc1ccc2c(C)c3c(ccc4ccccc43)c[n+]2c1`, the GI50 in experiment [1] was 0.775 µM; in experiment [2], 1.56 µM; in experiment [3] it was 1.96 µM; in [4] it was 13.5 µM; in experiment [5] it was 9.55 µM; in experiment [6], 39.5 µM. Further, the GI50 in experiment [7] is 4.92 µM; in [8], 15.4 µM; in experiment [9] it was 4.68 µM; in experiment [10], 8.88 µM. Further, the TGI in experiment [1] was above 100 µM; in experiment [2], 14.8 µM; in experiment [3], 5.69 µM; in experiment [4] it was 46.2 µM; in experiment [5], 24.4 µM; in experiment [6] it was above 100 µM. For the same compound, the TGI in experiment [7] is 41.2 µM; in experiment [8] it was 33.6 µM; in [9], 18.4 µM; in experiment [10], 22 µM.

For the origin of these results see PubChem BioAssay (NCI).
